The source of these data is patent publication EP1873155A1, “Inhibitors of the HIV integrase enzyme” (PFIZER INC., priority 2004, dated 2005).

For the first assay, the system named is RF strain of HIV-1. Briefly: HIV-1 cell protection assay (XTT dye reduction). The conditions noted are these: CEM-SS cells infected with HIV-1 RF, six days, XTT formazan; read-out: EC50. The assay is classed as cell-based. Here is the method:
Example 61: HIV-1 Cell Protection Assay
The antiviral activities of potential modulator compounds (test compounds) were determined in HIV-1 cell protection assays using the RF strain of HIV-1, CEM-SS cells, and the XTT dye reduction method (Weislow, O.S. et al., J. Natl. Cancer Inst. 81: 577-586 (1989)). Subject cells were infected with HIV-1 RF virus at an moi of 0.025 to 0.819 or mock infected with medium only and added at 2 x 10^4 cells per well into 96 well plates containing half-log dilutions of test compounds. Six days later, 50 µl of XTT solution (1 mg/ml XTT tetrazolium and […] phenazine methosulfate) were added to the wells and the plates were reincubated for four hours. Viability, as determined by the amount of XTT formazan produced, was quantified spectrophotometrically by absorbance at 450 nm.
Data from CPE assays were expressed as the percent of formazan produced in compound-treated cells compared to formazan produced in wells of uninfected, compound-free cells. […] The therapeutic index was calculated by dividing the cytotoxicity (CC50) by the antiviral activity (EC50).
`O=C1c2ncc3c(ccn3Cc3ccc(F)cc3)c2CCCN1O` [Example 3, 3-(4-Fluorobenzyl)-7-hydroxy-7,8,9,1 0-tetrahydropyrrolo[3',2':4,5]pyrido[2,3-c]azepin-6(3H)-one]: the EC50 (usually the midpoint of the concentration-response curve) was 29 nM.

The same assay, now with this note: Human immunodeficiency virus 1, CEM-SS, 144 h.
As to `CC(=O)N1CCN(C(=O)c2cn(Cc3ccc(F)cc3)c3cnc4c(=O)n(O)ccc4c23)CC1` [Example 27, 1-[(4-acetylpiperazin-1-yl)carbonyl]-3-(4-fluorobenzyl)-7-hydroxy-3,7-dihydro-6H-pyrrolo[2,3-c]-1,7-naphthyridin-6-one], the EC50 amounted to 19 nM.

As to `O=C1c2ncc3c(ccn3Cc3ccc(F)cc3)c2CCN1O` [Example 2, 3-(4-Fluorobenzyl)-7-hydroxy-3,7,8,9-tetrahydro-6H-pyrrolo[2,3-c]-1,7-naphthyridin-6-one], a half-maximal effect (EC50) was put at 0.6 nM. The same measure, in the same setting: in the case of `O=C(NCc1ccccn1)c1cn(Cc2ccc(F)cc2)c2cnc3c(=O)n(O)ccc3c12` [Example 29, 3-(4-fluorobenzyl)-7-hydroxy-6-oxo-N-(pyridin-2-ylmethyl)-6,7-dihydro-3H-pyrrolo[2,3-c]-1,7-naphthyridine-1-carboxamide] it was 35 nM. `O=C(NCC(F)(F)F)c1cn(Cc2ccc(F)cc2)c2cnc3c(=O)n(O)ccc3c12` [Example 30, 3-(4-fluorobenzyl)-7-hydroxy-6-oxo-N-(2,2,2-trifluoroethyl)-6,7-dihydro-3H-pyrrolo[2,3-c]-1,7-naphthyridine-1-carboxamide] returned an EC50 of 13 nM.

The assay is the same for the next values; noted with them: Human immunodeficiency virus 1, CEM-SS, 144 h, CEM-SS cells infected with HIV-1 RF, six days, XTT formazan; read-out: EC50.
On to `O=c1c2ncc3c(c(CN4CCOCC4)cn3Cc3ccc(F)cc3)c2ccn1O` [Example 57, 3-(4-fluorobenzyl)-7-hydroxy-1-(morpholin-4-ylmethyl)-3,7-dihydro-6H-pyrrolo[2,3-c]-1,7-naphthyridin-6-one], for which the EC50 is 0.32 nM. On the same count and under the same terms, in the case of `O=c1c2ncc3c(c(COCCOC4CCCCC4)cn3Cc3ccc(F)cc3)c2ccn1O` [Example 34, 1-{[2-(cyclohexyloxy)ethoxy]methyl}-3-(4-fluorobenzyl)-7-hydroxy-3,7-dihydro-6H-pyrrolo[2,3-c]-1,7-naphthyridin-6-one] it was 2 nM; in that of `CCCCCN(C)Cc1cn(Cc2ccc(F)cc2)c2cnc3c(=O)n(O)ccc3c12` [Example 11, 3-(4-fluorobenzyl)-7-hydroxy-1-{[methyl(pentyl)amino]methyl}-3,7-dihydro-6H-pyrrolo[2,3-c]-1,7-naphthyridin-6-one], 3 nM. Still for that read-out and setting: in the case of `CN(Cc1cnn(-c2ccccc2)c1)Cc1cn(Cc2ccc(F)cc2)c2cnc3c(=O)n(O)ccc3c12` [Example 59, 3-(4-fluorobenzyl)-7-hydroxy-1-({methyl[(1-phenyl-1 H-pyrazol-4-yl)methyl]amino}methyl)-3,7-dihydro-6H-pyrrolo[2,3-c]-1,7-naphthyridin-6-one] it was 0.74 nM; in that of `CCS(=O)(=O)N1CCN(Cc2cn(Cc3ccc(F)cc3)c3cnc4c(=O)n(O)ccc4c23)CC1` [Example 52, 1-{[4-(ethylsulfonyl)piperazin-1-yl]methyl}-3-(4-fluorobenzyl)-7-hydroxy-3,7-dihydro-6H-pyrrolo[2,3-c]-1,7-naphthyridin-6-one], 1.6 nM. On the same count and under the same terms, the result for `O=C1CCCN1CC1(O)CCN(Cc2cn(Cc3ccc(F)cc3)c3cnc4c(=O)n(O)ccc4c23)CC1` [Example 18, 3-(4-fluorobenzyl)-7-hydroxy-1-({4-hydroxy-4-[(2-oxopyrrolidin-1-yl)methyl]piperidin-1-yl}methyl)-3,7-dihydro-6H-pyrrolo[2,3-c]-1,7-naphthyridin-6-one] reads 67 nM; that for `CN(Cc1ccccc1)Cc1cn(Cc2ccc(F)cc2)c2cnc3c(=O)n(O)ccc3c12` [Example 54, 1-{[benzyl(methyl)amino]methyl}-3-(4-fluorobenzyl)-7-hydroxy-3,7-dihydro-6H-pyrrolo[2,3-c]-1,7-naphthyridin-6-one], 0.42 nM. For `CN(CCc1ccccn1)Cc1cn(Cc2ccc(F)cc2)c2cnc3c(=O)n(O)ccc3c12` [Example 16, 3-(4-fluorobenzyl)-7-hydroxy-1-{[methyl(2-pyridin-2-ylethyl)amino]methyl}-3,7-dihydro-6H-pyrrolo[2,3-c]-1,7-naphthyridin-6-one], the EC50 amounted to 7 nM. Still for that read-out and setting: the result for `CCN(Cc1cn(Cc2ccc(F)cc2)c2cnc3c(=O)n(O)ccc3c12)C1CCCCC1` [Example 14, 1-{[cyclohexyl(ethyl)amino]methyl}-3-(4-fluorobenzyl)-7-hydroxy-3,7-dihydro-6H-pyrrolo[2,3-c]-1,7-naphthyridin-6-one] reads 8 nM. Still for that read-out and setting: the result for `O=c1c2ncc3c(c(COCCc4ccccn4)cn3Cc3ccc(F)cc3)c2ccn1O` [Example 33, 3-(4-fluorobenzyl)-7-hydroxy-1-[(2-pyridin-2-ylethoxy)methyl]-3,7-dihydro-6H-pyrrolo[2,3-c]-1,7-naphthyridin-6-one] reads 3 nM; that for `O=C1CN(S(=O)(=O)c2cn(Cc3ccc(F)cc3)c3cnc4c(=O)n(O)ccc4c23)CCN1` [Example 22, 3-(4-fluorobenzyl)-7-hydroxy-1-[(3-oxopiperazin-1-yl)sulfonyl]-3,7-dihydro-6H-pyrrolo[2,3-c]-1,7-naphthyridin-6-one], 45 nM; that for `Cc1cccc(CNCc2cn(Cc3ccc(F)cc3)c3cnc4c(=O)n(O)ccc4c23)c1` [Example 41, 3-(4-fluorobenzyl)-7-hydroxy-1-{[(3-methylbenzyl)amino]methyl}-3,7-dihydro-6H-pyrrolo[2,3-c]-1,7-naphthyridin-6-one], 3 nM. Same read-out and setting: the result for `O=c1c2ncc3c(c(CNCc4ccccn4)cn3Cc3ccc(F)cc3)c2ccn1O` [Example 44, 3-(4-fluorobenzyl)-7-hydroxy-1-{[(pyridin-2-ylmethyl)amino]methyl}-3,7-dihydro-6H-pyrrolo[2,3-c]-1,7-naphthyridin-6-one] reads 0.74 nM; that for `CCCN(CCO)Cc1cn(Cc2ccc(F)cc2)c2cnc3c(=O)n(O)ccc3c12` [Example 48, 3-(4-fluorobenzyl)-7-hydroxy-1-{[(2-hydroxyethyl)(propyl)amino]methyl}-3,7-dihydro-6H-pyrrolo[2,3-c]-1,7-naphthyridin-6-one], 1.2 nM.

Take `Cc1cnc(CNCc2cn(Cc3ccc(F)cc3)c3cnc4c(=O)n(O)ccc4c23)cn1` [Example 42, 3-(4-fluorobenzyl)-7-hydroxy-1-({[(5-methylpyrazin-2-yl)methyl]amino}methyl)-3,7-dihydro-6H-pyrrolo[2,3-c]-1,7-naphthyridin-6-one]: the EC50 is 3 nM. Same read-out and setting: the result for `O=c1c2ncc3c(c(S(=O)(=O)NCC(F)(F)F)cn3Cc3ccc(F)cc3)c2ccn1O` [Example 24, 3-(4-fluorobenzyl)-7-hydroxy-6-oxo-N-(2,2,2-trifluoroethyl)-6,7-dihydro-3H-pyrrolo[2,3-c]-1,7-naphthyridine-1-sulfonamide] reads 22 nM; that for `Cc1cc2c(ncc3c2ccn3Cc2ccc(F)cc2)c(=O)n1O` [Example 47, 3-(4-fluorobenzyl)-7-hydroxy-8-methyl-3,7-dihydro-6H-pyrrolo[2,3-c]-1,7-naphthyridin-6-one], 0.23 nM; that for `O=C(CN1CCN(Cc2cn(Cc3ccc(F)cc3)c3cnc4c(=O)n(O)ccc4c23)CC1)N1CCCC1` [Example 15, 3-(4-fluorobenzyl)-7-hydroxy-1-{[4-(2-oxo-2-pyrrolidin-1-ylethyl)piperazin-1-yl]methyl}-3,7-dihydro-6H-pyrrolo[2,3-c]-1,7-naphthyridin-6-one], 39 nM.
